The values below are quoted from earlier work in publication PMC10552101 (ACS Omega, 2023).

As for `CNC1CC(c2ccc(Cl)c(Cl)c2)c2ccccc21` (stereo not shown) [LU-19-005, indatraline], the onset entry is recorded as “slow onset”.
